These results are taken from ChEMBL document CHEMBL4418259, “Flavan-3-ol containing foodstuffs” (2012).

This experiment has as its target T1, Taste receptor type 2 member 39 (Homo sapiens) (UniProt P59534).
T1 sequence (whole entry): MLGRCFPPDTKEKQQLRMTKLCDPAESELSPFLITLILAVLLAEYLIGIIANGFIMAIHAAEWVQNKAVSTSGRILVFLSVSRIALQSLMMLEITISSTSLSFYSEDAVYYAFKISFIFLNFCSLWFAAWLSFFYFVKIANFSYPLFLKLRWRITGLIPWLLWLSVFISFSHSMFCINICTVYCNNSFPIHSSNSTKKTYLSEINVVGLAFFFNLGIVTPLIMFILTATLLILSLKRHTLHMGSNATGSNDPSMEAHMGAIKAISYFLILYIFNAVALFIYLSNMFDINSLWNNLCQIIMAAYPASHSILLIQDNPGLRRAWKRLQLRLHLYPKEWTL
Description: Inhibition of human TAS2R39 expressed in HEK293 cells coexpressing G-protein at 10 mM assessed as reduction in epicatechin gallate-induced intracellular calcium release by Fluo-4-AM dye based fluorescence assay relative to control. The experiment is classed as functional, cell-based. A general note: Calcium assays in cells follow changes in intracellular calcium, usually with a dye or a luminescent sensor.

As for `N[C@@H](Cc1ccccc1)C(=O)O`, the inhibition was 0%. In the case of `COc1ccc(/C=C/C(=O)O)c(OC)c1`, the inhibition is 40%. As to `COc1cc(/C=C/C(=O)O)cc(OC)c1O`, the inhibition amounted to 65%. As to `COc1cc(/C=C/C(=O)O)cc(OC)c1OC`, the inhibition worked out at 70%. Then `COc1cccc(C(=O)O)c1O`, with 25%; and `COc1ccccc1/C=C/C(=O)O`, with 0%; and `O=C(O)Cc1ccccc1`, with 5%. Take `O=C(O)c1ccccc1`: the inhibition is 20%. `O=C(O)CCc1ccc(O)cc1`: the inhibition is 25%. Consider `O=C(O)Cc1ccc(O)c(O)c1`, for which the inhibition was determined as 15%.

In the case of `O=C(O)CCc1ccc(O)c(O)c1`, the inhibition is 30%. Regarding `O=C(O)CCc1ccccc1`, the inhibition stood at 15%. Then `COc1cc(/C=C/C(=O)O)cc(OC)c1`, with 20%; and `COc1cc(CCC(=O)O)cc(OC)c1OC`, with 35%.

Consider `COc1ccccc1C(=O)O`, for which the inhibition was determined as 10%. On to `O=C(O)/C=C/c1ccc(O)c(O)c1`, for which the inhibition was 30%. In the case of `COc1ccc(CC(=O)O)cc1`, the inhibition amounted to 15%. Consider `COc1ccc(C(=O)O)cc1OC`, for which the inhibition is 10%. For `O=C(O)c1ccc(O)cc1` the value was 25%; for `O=C(O)Cc1ccc(O)cc1`, 20%; for `COc1cc(CCC(=O)O)ccc1O`, 35%. Then `O=C(O)c1cc(O)c(O)c(O)c1`, with 25%. For `COc1cc(C(=O)O)cc(OC)c1OC` the value was 20%; for `O=C(O)/C=C/c1ccc(O)cc1`, 40%. For the compound `O=C(O)CCCc1ccccc1`, the inhibition came to 40%. Turning to `COc1cccc(C(=O)O)c1`, the inhibition was 5%. Then `O=C(O)c1ccc(O)c(O)c1`, with 15%; and `COc1cc(CC(=O)O)cc(OC)c1OC`, with 25%. In the case of `COc1ccc(CCC(=O)O)cc1`, the inhibition came to 40%. On to `COc1cccc(/C=C/C(=O)O)c1`, for which the inhibition came out at 0%. Take `COc1ccc(CCC(=O)O)cc1OC`: the inhibition came out at 35%. Turning to `O=C(O)/C=C/c1ccccc1`, the inhibition amounted to 40%.

As to `COc1cc(/C=C/C(=O)O)ccc1O`, the inhibition came to 65%. For `COc1ccc(/C=C/C(=O)O)cc1` the value was 30%; for `COc1ccc(C(=O)O)cc1`, 15%.

As a reminder, the inhibition is the share of the control response that was lost under treatment.
